Measurements from a melting point compilation (Tetko et al.; mined from patent text by program, amines drawn as free bases though some values may be those of a salt).
Non-standard residues stand in square brackets, D forms with d. Residues, ends and D or L forms follow the SMILES beside them. Hyp = O=C(O)[C@@H]1C[C@@H](O)CN1

With `Cc1cc(OCc2ccc(-c3ccc(C(F)(F)F)cc3)nn2)ccc1OC(C)(C)C(=O)O` the melting point was 191 to 192 °C. Compound `COC(=O)C1=C(C)OC(OC)(OC)CC1NC(C)=O` (stereo not given) has a melting point of 160 to 162 °C. For `CCOC(=O)c1c(Cl)c(-c2ncc(Cl)cc2F)nn1C`, the melting point was 77 to 79 °C. Work on `CN(C1CCSCC1)S(=O)(=O)c1ccc(Nc2nccc(Nc3ccc(F)cc3)n2)cc1` yielded a melting point of 182 °C. `NC(=O)c1c(C(=O)O)cnn1-c1ccc(Cl)c(Cl)c1` showed a melting point of 249 to 250 °C. In the case of `CC(C)Oc1cccc2oc(-c3ccccc3)cc(=O)c12`, the melting point was 98 to 99 °C. In the case of `O=C(OCCO)c1cc(-c2ccc(Cl)cc2)c[nH]1`, the melting point was 128 to 130 °C. In the case of `Nc1nc2ccc(C(O)C(CNC(=O)c3ccccc3)N3CCC(Cc4ccccc4)CC3)cc2s1` (stereo not given), the melting point was 160 to 162 °C. `NC(=O)c1ccc(OCC2CO2)c(I)c1` (stereo not given) showed a melting point of 149 to 151 °C. Compound `Cn1cc2c(C(F)(F)F)cc(Cl)nc2n1` has a melting point of 124 °C. Work on `CN(C(=O)C1CCCN(c2ccc([N+](=O)[O-])c(C=C3NC(=O)NC3=O)c2)C1)C1CCCCC1` (stereo not given) yielded a melting point of 153 to 162 °C. Compound `O=[N+]([O-])c1c(O)c(O)cc2cc(N=Nc3ccccc3)ccc12` has a melting point of 238 to 244 °C. Work on `CCCCCc1cnc(-c2ccc(N=C=S)cc2)nc1` yielded a melting point of 46 °C. `CN1C(=O)Nc2ccccc2C12NC(=O)NC2=O` (stereo not given) showed a melting point of over 280 °C. `CC=CCNc1cc(C(=O)O)cc(S(N)(=O)=O)c1Oc1cccc(NC(C)=O)c1` gave a melting point of 198 to 202 °C. With `Cc1c(C)c2c(c(C)c1N)C(c1ccc(-c3ccccc3)cc1)CO2` (stereo not given) the melting point was 149 to 150 °C. In the case of `CC(C)(Cc1ccccc1)C(NC(=O)COc1ccccc1)Nc1c(Nc2cccnc2)c(=O)c1=O` (stereo not given), the melting point was 249 to 250 °C. In the case of `COc1ccc(/C=C/c2cc(F)cc(F)c2)cc1`, the melting point was 108 to 110 °C. With `O=C(Cc1ccc(Cl)c(Cl)c1)NC1N=C(C2CC2)c2ccccc2N(CC(F)(F)F)C1=O` (single isomer, unassigned; (+)) the melting point was 193 to 194 °C. Compound `C1=NNC(c2ccccc2)c2ccccc21` (stereo not given) has a melting point of 79 °C. `COc1ccc(-n2nc(OC)cc2-c2ccc(C#N)cc2)cc1` showed a melting point of 112 to 113 °C. In the case of `CN1Cc2cccnc2N(c2cccc(F)c2)C1=O`, the melting point was 189 to 192 °C. With `CCO/C=C1\SC(=S)N(C)C1=O` the melting point was 110 to 111 °C. `CCCc1cc(=O)[nH]c2c3c(cc(O)c12)OC(C)C(C)C3=O` (stereo not given) showed a melting point of 295 to 296 °C. In the case of `N[C@H](C1CCCCC1)C(O)(c1ccc2ccccc2c1)c1ccc2ccccc2c1`, the melting point was 205 to 206 °C. Work on `OC[C@]1(c2ccccc2)O[C@H]1c1ccccc1` yielded a melting point of 88 to 89 °C. With `CC1(C)CCC(C)(C)c2cc(-c3ccc(O)c(-c4ccc(C(=O)O)cc4)c3)ccc21` the melting point was 264 to 267 °C. Work on `COc1ccc2c(c1Br)CCC1C(=O)N(C)C(=O)C21` (stereo not given) yielded a melting point of 196 to 199 °C. `Cc1cc(Oc2cccc(C#CC(C)N(O)C(N)=O)c2)ccc1F` (stereo not given) showed a melting point of 141 to 142 °C. `CCCCc1ccc(C2(C)OC(=C(C#N)C#N)C(C#N)=C2C)cc1` (stereo not given) showed a melting point of 129 to 130 °C. `COC(=O)C=C(CC(=O)OC)NCc1ccccc1` gave a melting point of 67 to 69 °C. Compound `Cc1ccc(S(=O)(=O)Nc2ccc(CCCC(=O)O)nc2)cc1` has a melting point of 154 to 155 °C. Work on `COc1cc(OC)nc(-n2c(S(C)(=O)=O)nc3ccccc32)n1` yielded a melting point of 114 to 117 °C. In the case of `N#Cc1cccc(-c2nc(C(N)=O)c3[nH]c(=O)n(-c4ccccc4)c3n2)c1`, the melting point was 328 to 330 °C. `OC(COc1ccc(Cl)cc1)(Cn1cncn1)Cn1cncn1` showed a melting point of 99 °C. `C#CCOc1noc2ccc(N3C(=O)C4=C(CCCC4)C3=O)cc12` gave a melting point of 147 to 148 °C. For `O=C(O)[C@H]1C=C[C@H](c2ccccc2)n2c(=O)n(CCS)c(=O)n21` (relative stereo), the melting point was 153 to 154 °C. With `COC(=O)C(CNC(=O)Cc1ccc(OC)c(OC)c1)c1ccc(OC)c(OC)c1` (stereo not given) the melting point was 92 to 93 °C. In the case of `CCOc1cc(C)c(CCc2ccc(OC)c(OC)c2)cc1OC`, the melting point was 38.4 °C. With `CCCc1ccnc(C(=O)O)c1N` the melting point was 185 to 188 °C. Work on `O=C(Cc1ccc(Cl)c(Cl)c1)c1ccc(Cl)cc1` yielded a melting point of 99 to 103 °C. For `CCOC(=O)Cn1c(Br)c(Br)c(C#N)c1Br`, the melting point was 140 to 143 °C. Work on `Nc1ccc(O)c(CSCCO)c1` yielded a melting point of 121 °C. `NCC(=O)N1C[C@H](O)C[C@H]1C(=O)N[C@@H](CCC(=O)O)C(=O)O` (H-Gly-[Hyp]-Glu-OH) gave a melting point of 158 to 160 °C. `COc1ccc(C(C)(C)C)cc1NC(=O)Nc1ccc(C)cc1N` showed a melting point of 165 to 166 °C. With `Clc1ccccc1-c1cccc2c1OC(CNCC1CC1)CO2` (stereo not given) the melting point was 138 to 140 °C. Compound `CC(C)C(NC(=O)OC(C)(C)C)C(=O)NC(C(=O)OC1CC(n2cc(C=CBr)c(=O)[nH]c2=O)OC1CCl)C(C)C` (stereo not given) has a melting point of 114 to 116 °C. Compound `CCC1(C(=O)C=Cc2ccc(OC)c(OC)c2)CC1` has a melting point of 63 to 65 °C. For `O=C1CCC(N2C(=O)c3ccc(CNCc4cc5ccccc5o4)cc3C2=O)C(=O)N1` (stereo not given), the melting point was 133 to 135 °C. With `O=C(Nc1ccc(Cl)cn1)c1cc(Cl)ccc1NCC1CCN(C(=O)N2CCOCC2)CC1` the melting point was 105 to 107 °C. `O=C1c2ccccc2C(=O)c2cc(OCC3CO3)ccc21` (stereo not given) showed a melting point of 162 to 167 °C. In the case of `COC(=O)NCc1cccc(-c2ccccc2)c1C`, the melting point was 91 to 94 °C. Compound `CNc1scc(C)c1C(=O)c1ccccc1` has a melting point of 144 to 145 °C. `C=C(Cc1ccc2c(c1)OCO2)C(=O)O` showed a melting point of 121 °C. Compound `CC1(C)OC(=O)Nc2ccc(-c3cc(CC#N)ccc3F)cc21` has a melting point of 184 to 187 °C. Work on `NC1CC(N)(C(=O)O)C2C(C(=O)O)C12` (stereo not given) yielded a melting point of over 275 °C. Work on `CCCSc1sc(C(=O)OCC)c2c1-c1nn(C)cc1CC2` yielded a melting point of 90 to 91 °C. Compound `C=CCOC1C(OC2C(COCc3ccccc3)OC(OC)C(OCc3ccccc3)C2OCc2ccccc2)OC(CO)C(O)C1OCc1ccccc1` (stereo not given) has a melting point of 119 to 120 °C. Compound `Clc1nc2ccccc2c2[nH]cnc12` has a melting point of 257 to 258 °C. With `COc1cc(OC)nc(Sc2c([N+](=O)[O-])c(C)nn2C)n1` the melting point was 124 to 125 °C. Work on `O=C(O)c1c[nH]c(=S)n1C1Cc2cc(F)cc(F)c2C1` (stereo not given) yielded a melting point of 230 to 232 °C. `CC(C)(C)OC(=O)NC1CCCCc2cc(OCC3CCCCC3)c(C(=O)O)cc21` (stereo not given) showed a melting point of 159 to 160 °C. `O=C(OCc1cccnc1)c1ccc(F)cc1` gave a melting point of 142 to 143 °C. For `C[C@H](N)Cn1ncc2ccc3oc(C(N)=O)nc3c21`, the melting point was 60 to 65 °C. Compound `Cc1cc(Cl)ccc1Cn1nc(C=O)c2ccccc21` has a melting point of 107 to 109 °C. With `CCOC(=O)CN[C@@H](c1ccccc1)[C@H](O)c1ccccc1` the melting point was 126 to 127 °C. Compound `COCCn1cc(-c2ccccc2)[nH]c1=O` has a melting point of 152 to 153 °C. `Nc1n[nH]c2cc(C(=O)C=NO)ccc12` showed a melting point of 199 to 201 °C. In the case of `OC(Cn1cncn1)(Cn1cnc(C=Cc2ccc(OC(F)(F)F)cc2)n1)c1ccc(F)cc1F` (stereo not given), the melting point was 149 to 151 °C. In the case of `C[C@H](NC(=O)CS)C(=O)N1CCC[C@H]1C(=O)O`, the melting point was 152 to 155 °C. `CCOC(=O)c1cnn(-c2cccc(S(=O)(=O)N(C)C)n2)c1Cl` showed a melting point of 117 to 120 °C. With `O=c1ccc(S(=O)(=O)c2oc3ccccc3c2-c2ccccc2)n[nH]1` the melting point was over 220 °C. For `CC1(C)CCC(C)(C)c2ccccc21`, the melting point was 71 to 72 °C. `COC(=O)c1ccc(NC(=O)c2cc(C(C)C)c(C(C)C)o2)cn1` showed a melting point of 186 to 188 °C. `CNC(=O)c1cc2ccc3c(c2c(-c2ccc4c(c2)OCO4)c1CO)OCO3` gave a melting point of 233 to 235 °C.
